Measured values from US20080045605A1, “Image Quality in the Eye” (priority 2004, published 2008).

System: human eye
Assay: higher-order wavefront aberrations (rms) measured with a wavefront analyzer in subjects treated for 6 months
Assay type: in vivo
Conditions: human subjects treated for 6 months; 20 mg/day zeaxanthin (Z), 20 mg/day lutein (L), or 10 mg lutein+10 mg zeaxanthin per day (C, P-C); versus placebo; FIG. 1
Excerpt: The wavefront aberration function is a way of quantifying the imperfections of the optics of the eye that cause degradation of retinal image quality. The “ideal” wavefront is generated when a “point” on the retina is imaged through the optics of the eye as a plane and flat surface just outside the eye. This means that all the rays emerging from the eye form a parallel bundle and are perpendicular to this plane. The “real” wavefront surface is not a perfect two-dimensional plane and reflects the aberrations present in the optical system. It is usually represented mathematically by a series of terms known as Zernike polynomials. A knowledge of the coefficients of the Zernike polynomials provides a complete description of the wavefront surface. In order to obtain one single number that describes the quality of the imaging system (in this case the human eye) the root mean square (rms) deviation is calculated by computing the root of the mean of the squares of the actual deviations from the ideal plane. The rms value is equivalent to a standard deviation, but the two functions compared are 2D surfaces (i.e., the ideal wavefront and the actual wavefront). The wavefront aberrations are measured with a wavefront analyzer (see, e.g., J. Refract. Surg. 2001; 17(5), S608-S612). […]

Structure (SMILES)	higher-order wavefront aberrations in the human eye
CC1=C[C@H](O)CC(C)(C)[C@H]1/C=C/C(C)=C/C=C/C(C)=C/C=C/C=C(C)/C=C/C=C(C)/C=C/C1=C(C)C[C@@H](O)CC1(C)C [lutein]	reduction of higher-order wavefront aberrations
CC1=C(/C=C/C(C)=C/C=C/C(C)=C/C=C/C=C(C)/C=C/C=C(C)/C=C/C2=C(C)C[C@@H](O)CC2(C)C)C(C)(C)C[C@H](O)C1 [zeaxanthin]	reduction of higher-order wavefront aberrations
